Like-named read-outs stand apart in the source and are kept apart here.
Legend:
d-U937 cells = assay: LPS-induced TNFα/IL-8 release in d-U937 cells; type: cell-based; conditions: Homo sapiens, dU937, assay (aa)
Protocol: U937 cells, a human monocytic cell line, are differentiated to macrophage-type cells by incubation with phorbol myristate acetate (PMA; 100 ng/mL) for 48 to 72 hr. Cells are pre-incubated with final concentrations of test compound for 2 hr and are then stimulated with 0.1 μg/mL of LPS (from E. Coli: 0111:B4, Sigma) for 4 hr. The supernatant is collected for determination of TNFα and IL-8 concentrations by sandwich ELISA (Duo-set, R&D systems). […] The relative 50% effective concentration (REC50) is determined from the resultant concentration-response curve. The inhibition of IL-8 production is calculated at each concentration of test compound by comparison with vehicle control.

PBMCs [1] = assay: LPS-induced TNFα/IL-8 release in PBMC cells; type: cell-based; conditions: Homo sapiens, assay (b), read-out: IC50 Values for Inhibition of Cytokine Release PBMCs IL-8
In short: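 Healthy-donor PBMCs isolated by density gradient were pretreated with compound for 2 h, then stimulated with 1 ng/mL LPS (E. coli 0111:B4) for 24 h at 37° C., 5% CO2. IL-8 and TNFα in supernatants measured by sandwich ELISA.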

PBMCs [2] = assay: IL-2 and IFN gamma release in CD3/CD28 stimulated PBMC cells; type: cell-based; conditions: Homo sapiens, assay (c)
In short: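 Healthy-donor PBMCs, density-gradient isolated, stimulated on plates pre-coated with anti-CD3 (0.3 μg/mL) and anti-CD28 (3 μg/mL) antibodies, with compound, for 3 days under standard culture conditions. IC50 derived from the dose-response curve.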

HT29 cells = assay: IL-1β-induced IL-8 release in HT29 cells; type: cell-based; conditions: Homo sapiens, HT-29, assay (d), read-out: IC50 Values for Inhibition of Cytokine Release HT29 cells IL-8
Protocol: HT29 cells, a human colon adenocarcinoma cell line, are plated in a 96 well plate (24 hr) and pre-treated with compounds at the desired concentration for 2 hours before addition of 5 ng/mL of IL-1β (Abcam) for 24 hours. Supernatants are harvested for IL-8 quantification by Sandwich ELISA (Duo-set, R&D System). The IC50 is determined from the dose response curve.

PBMCs [3] = assay: Cell mitosis assay in PBMCs; type: cell-based; conditions: Homo sapiens, PBMC, 5 μg/mL
In short: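 Human PBMCs from healthy donors, density-gradient isolated, stimulated with 2% PHA 48 h, then exposed 20 h to test compounds; demecolcine 0.1 μg/mL added 2 h before harvest. Fixed/permeabilised cells stained for phospho-histone H3 and propidium iodide; mitotic lymphocytes counted by flow cytometry.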

[4] = Hydrolytic stability study (DMSO/water 3:1, 60° C.); type: physicochemical
Protocol: Chemical stability of compounds of the invention was assessed in a mixture of DMSO and water (3:1) at a test compound concentration of 1 mg/mL
Agilent, Waters X-Select C18, 2.5 μm, 4.6×30 mm column, 4 min method, 5-95%
MeCN/water (0.1% formic acid).
Column Oven Temperature 40° C.
Sample Preparation • A 1.0 mg sample of test compound was dissolved in 750 μL of DMSO. Water (250 μL) was added slowly, ensuring no precipitation occurred.
Recording Stability • A 50 μL aliquot of the test solution was removed and analysed in duplicate by 5 μL HPLC injections. The peak area for the test compound was recorded following manual integration of the corresponding UV trace. • The test solution was heated to 60° C., with stirring, and 50 μL aliquots removed for HPLC analysis at 5 and 24 h timepoints.

[5] = method: relative to 10 μg/mL BIRB796 (REC50), read-out: IC50 Values for Inhibition of Cytokine Release dU937 cells TNFα
[6] = read-out: IC50 Values for Inhibition of Cytokine Release dU937 cells IL-8
[7] = read-out: IC50 Values for Inhibition of Cytokine Release PBMCs IFNγ
[8] = read-out: IC50 Values for Inhibition of Cytokine Release PBMCs IL-2

SMILES	IC50 (d-U937 cells; [5]) [nM]	IC50 (d-U937 cells; [6]) [nM]	IC50 (PBMCs [1]) [nM]	IC50 (PBMCs [2]; [7]) [nM]	IC50 (PBMCs [2]; [8]) [nM]	IC50 (HT29 cells) [nM]	inhibition at 5 µg/mL (PBMCs [3]) [%]	decomposition in hydrolytic stability study ([4]; 1 mg/mL in DMSO:water (3:1), 60° C., 5 and 24 h)	% Parent Remaining ([4]; DMSO/water 3:1, 0 min) [%]	% Parent Remaining ([4]; DMSO/water 3:1, 60° C., 300 min) [%]	% Parent Remaining ([4]; DMSO/water 3:1, 60° C., 1440 min) [%]
COc1cc(Nc2nccc(Oc3ccc(NC(=O)Nc4cc(C(C)(C)C)cc(NS(C)(=O)=O)c4OC)c4ccccc34)n2)cc(S(=O)(=O)C2CC2)c1 [Example 5, N-(5-(tert-Butyl)-3-(3-(4-((2-((3-(cyclopropylsulfonyl)-5-methoxyphenyl)amino)pyrimidin-4-yl)oxy)naphthalen-1-yl)ureido)-2-methoxyphenyl)methanesulfonamide]	0.5	1.4	2.4	10.3	151	6.8	44.9				
COCCOCCOCCOc1cc(Nc2nccc(Oc3ccc(NC(=O)Nc4cc(C(C)(C)C)cc(NS(C)(=O)=O)c4OC)c(Cl)c3Cl)n2)cc(OC)c1 [Example 10, N-(5-(tert-Butyl)-3-(3-(2,3-dichloro-4-((2-((3-methoxy-5-(2-(2-(2-methoxyethoxy)ethoxy)-ethoxy)phenyl)amino)pyrimidin-4-yl)oxy)phenyl)ureido)-2-methoxyphenyl)-methanesulfonamide]	0.3	0.8	2.3	4.4	9	4.6	70.2				
COCCOCCOCCOc1cc(Nc2cc(Oc3ccc(NC(=O)Nc4cc(C(C)(C)C)cc(NS(C)(=O)=O)c4OC)c4ccccc34)ccn2)cc(OC)c1 [Example 11, N-(5-(tert-Butyl)-2-methoxy-3-(3-(4-((2-((3-methoxy-5-(2-(2-(2-methoxyethoxy)ethoxy)-ethoxy)phenyl)amino)pyridin-4-yl)oxy)naphthalen-1-yl)ureido)phenyl)-methanesulfonamide]	1.2	1.4	2.6	17.7	73.6	9.3	33.5				
COCCOCCOCCOCCOCCOCCOCCOc1cc(Nc2nccc(Oc3ccc(NC(=O)Nc4cc(C(C)(C)C)cc(NS(C)(=O)=O)c4OC)c4ccccc34)n2)cc(OC)c1 [Example 14, N-(3-(3-(4-((2-((3-(2,5,8,11,14,17,20-Heptaoxadocosan-22-yloxy)-5-methoxyphenyl)amino)-pyrimidin-4-yl)oxy)naphthalen-1-yl)ureido)-5-(tert-butyl)-2-methoxyphenyl)-methanesulfonamide]	0.5	0.6	1.7	19.7	182	3	49.8				
COCCOCCOCCOc1cc(Nc2nccc(Oc3ccc(NC(=O)Nc4cc(C(C)(C)C)cc(NS(C)(=O)=O)c4OC)c4ccccc34)n2)cc(OC(F)F)c1 [Example 17, N-(5-(tert-Butyl)-3-(3-(4-((2-((3-(difluoromethoxy)-5-(2-(2-(2-methoxyethoxy)ethoxy)-ethoxy)phenyl)amino)pyrimidin-4-yl)oxy)naphthalen-1-yl)ureido)-2-methoxyphenyl)-methanesulfonamide]		1.4	1.8	8.2	65.6	5.1	37				
C#Cc1cc(Nc2cc(Oc3ccc(NC(=O)Nc4cc(C(C)(C)C)cc(NS(C)(=O)=O)c4OC)c4ccccc34)ccn2)cc(C(=O)NCCOCCOC)c1 [Example 52, 3-((4-((4-(3-(5-(tert-Butyl)-2-methoxy-3-(methylsulfonamido)phenyl)ureido)naphthalen-1-yl)oxy)pyridin-2-yl)amino)-5-ethynyl-N-(2-(2-methoxyethoxy)ethyl)benzamide]			2.4	39	205	17.3	31				
C#Cc1cc(Nc2cc(Oc3ccc(NC(=O)Nc4cc(C(C)(C)C)cc(C(N)=O)c4OC)c4ccccc34)ccn2)cc(C(=O)NCCOCCOCCOC)c1 [Example 53, 3-((4-((4-(3-(5-(tert-Butyl)-3-carbamoyl-2-methoxyphenyl)ureido)naphthalen-1-yl)oxy)pyridin-2-yl)amino)-5-ethynyl-N-(2-(2-(2-methoxyethoxy)ethoxy)ethyl)benzamide]			1.6	14.9	181	6.4	30.3				
COCCOCCOCCOc1cc(Nc2nccc(Oc3ccc(NC(=O)Nc4cc(C(C)(C)C)cc(S(N)(=O)=O)c4OC)c4ccccc34)n2)cc(OC)c1 [Example 55, 5-(tert-Butyl)-2-methoxy-3-(3-(4-((2-((3-methoxy-5-(2-(2-(2-methoxyethoxy)ethoxy)-ethoxy)phenyl)amino)pyrimidin-4-yl)oxy)naphthalen-1-yl)ureido)benzenesulfonamide]			2.2	12	35.2	4.5	54.3				
C#Cc1cc(Nc2nccc(Oc3ccc(NC(=O)Nc4cc(C(C)(C)C)cc(NS(C)(=O)=O)c4OC)c4ccccc34)n2)cc(C(=O)N[C@H](C)CN2CCOCC2)c1 [Example 56, (R)-3-((4-((4-(3-(5-(tert-Butyl)-2-methoxy-3-(methylsulfonamido)phenyl)ureido)-naphthalen-1-yl)oxy)pyrimidin-2-yl)amino)-5-ethynyl-N-(1-morpholinopropan-2-yl)-benzamide]			1.8	12.2	35.2	8.6	46.4				
C#Cc1cc(Nc2nccc(Oc3ccc(NC(=O)Nc4cc(C(C)(C)C)cc(NS(C)(=O)=O)c4OC)c4ccccc34)n2)cc(C(=O)N[C@@H](C)CN2CCOCC2)c1 [Example 57, (S)-3-((4-((4-(3-(5-(tert-butyl)-2-methoxy-3-(methylsulfonamido)phenyl)ureido)-naphthalen-1-yl)oxy)pyrimidin-2-yl)amino)-5-ethynyl-N-(1-morpholinopropan-2-yl)benzamide]			3.6	74.5	140	21.2	42.1				
COCCOCCOCCOc1cc(Nc2nccc(Oc3ccc(NC(=O)Nc4cc(C(C)(C)C)cc(NS(C)(=O)=O)c4OC)c4ccccc34)n2)cc(OC)c1Cl [Example 58, N-(5-(tert-Butyl)-3-(3-(4-((2-((4-chloro-3-methoxy-5-(2-(2-(2-methoxyethoxy)ethoxy)ethoxy)-phenyl)amino)pyrimidin-4-yl)oxy)naphthalen-1-yl)ureido)-2-methoxyphenyl)-methanesulfonamide]			2.6	17.1	137	10.6	41.7				
C#Cc1cc(Nc2cc(Oc3ccc(NC(=O)Nc4cc(NS(C)(=O)=O)cc(C(C)(C)C)c4)c4ccccc34)ccn2)cc(C(=O)NCCN2CCOCC2)c1 [Example 65, 3-((4-((4-(3-(3-(tert-Butyl)-5-(methylsulfonamido)phenyl)ureido)naphthalen-1-yl)oxy)-pyridin-2-yl)amino)-5-ethynyl-N-(2-morpholinoethyl)benzamide]			4	34.4	131	145	51.1				
C#Cc1cc(Nc2nccc(Oc3ccc(NC(=O)Nc4cc(C(C)C)nn4-c4ccc(C)cc4)c4ccccc34)n2)cc(C(=O)NCCN2CCOCC2)c1 [Reference Compound B, 3-ethynyl-5-((4-((4-(3-(3-isopropyl-1-(p-tolyl)-1H-pyrazol-5-yl)ureido)naphthalen-1-yl)oxy)pyrimidin-2-yl)amino)-N-(2-morpholinoethyl)benzamide, reference compound]								underwent substantial decomposition	100	82	36
